Source: publication PMC11050087, “Polyphenols from Maackia amurensis Heartwood Protect Neuronal Cells from Oxidative Stress and Prevent Herpetic Infection” (International Journal of Molecular Sciences, 2024)
“And” between values parts separate entries of the source, which are not always exact repeats. Equal values may be shown once. Read-outs that look alike come from different tables or passages of the source.

Tests used:
[1] = system: 6-OHDA-treated Neuro-2a cells; assay: 6-OHDA-induced neurotoxicity model, cell viability test (MTT); type: cell-based, murine; conditions: compounds at 10, 1, 0.1 µM; 6-OHDA 100 µM
[2] = system: 6-OHDA-treated Neuro-2a cells; assay: Mitochondrial membrane potential detection (TMRM) in 6-OHDA-treated cells; type: cell-based, murine; conditions: compound 10 µM; 6-OHDA 120 µM; TMRM
Method: We determined the effect of polyphenolic compounds from M. amurensis on 6-OHDA-induced mitochondrial dysfunction in Neuro-2a cells (Figure 6a,b).
Figure 6 The effect of polyphenolic compounds isolated from M. amurensis heartwood on mitochondrial membrane potential in Neuro-2a cells treated with 6-OHDA (120 μM) (a,b). Polyphenolic compounds isolated from M. amurensis heartwood were used at concentrations 10, 1, 0.1 μM. The data are presented as means ± SEM of three independent replicates. (*) and (***) indicate, respectively, p < 0.05 and p < 0.001 versus 6-OHDA-treated cells.
The cells were incubated for 1 h in a 96-well plate (1 × 10^4 cells/well) with polyphenolic compounds (0.1, 1 and 10 µM). Then, 6-OHDA (120 µM) was added, and cell suspension was incubated for 1 h. Cells incubated without 6-OHDA and compounds and with 6-OHDA alone were used as positive and negative control, respectively. The tetramethylrhodamine methyl (TMRM) (Sigma-Aldrich, St. Louis, MO, USA) solution (500 nM) was added to each well and cells were incubated for 30 min at 37 °C. The intensity of fluorescence was measured using a PHERAstar FSplate reader (BMG Labtech, Ortenberg, Germany) at λex = 540 nm and λem = 590 nm. The data were processed by MARS Data Analysis v. 3.01R2 (BMG Labtech, Ortenberg, Germany).

[3] = Cytotoxicity against Vero cells (MTT assay); type: cell-based; conditions: African green monkey
Method: We prepared the stock solutions of the tested compounds (10 mg/mL) in DMSO (Sigma, St. Louis, MO, USA). For the MTT assay and further studies of anti-HSV-1 activity, we diluted the stock solutions with DMEM so that the final concentration of DMSO was 0.5%.
We used MTT assay to determine the cytotoxic effect of the tested compounds against Vero cells. We performed the MTT assay as previously described.

[4] = system: 6-OHDA-treated Neuro-2a cells; assay: Apoptosis profile by flow cytometry (Annexin V & Dead Cell Kit); type: cell-based, murine; conditions: Table 1; polyphenols 10 µM, 6-OHDA 100 µM, 24 h; mean
Method: We investigated the effect of polyphenolic compounds from M. amurensis on apoptosis profile in 6-OHDA-treated Neuro-2a cells by flow cytometry using fluorescent annexin V conjugate as a fluorescent dye. We observed significant changes in apoptosis profile in Neuro-2a cells after 6-OHDA-treatment. […] Polyphenols 3, 6 and 13 diminished the neurotoxic effect of 6-OHDA-treatment.
The cells were incubated for 1 h in a 6-well plate (5 × 10^4 cells/mL) with polyphenolic compounds (10 µM). Then, 6-OHDA (100 µM) was added, and cell suspension was incubated for 24 h. After incubation, the maintenance media was collected, and the cells were washed by cold PBS twice and incubated with trypsin-EDTA solution. The cell suspension was washed with cold PBS twice again, centrifugated and then used for apoptosis detection by Muse® Annexin V & Dead Cell Kit in accordance with the manufacturer’s instructions (Luminex, Austin, TX, USA). The fluorescence was measured with Muse® Cell Analyzer (Luminex, Austin, TX, USA) and the data were processed by Muse 1.5 Analysis software (Luminex, Austin, TX, USA).

HSV-1 [5] = assay: Pretreatment of cells with polyphenolic compounds, CPE inhibition assay; type: cell-based, HSV-1 strain L2; conditions: for IC50: Human alphaherpesvirus 1, cells pretreated 2 h before infection, CPE assay; for Pretreatment of Cells SI: ratio of CC50 to IC50
Method: (§1) In order to study the mechanism of action of these compounds, two additional schemes of treatment of the virus and Vero cells with polyphenols were applied: the compounds were added before virus infection (pretreatment of cells) and after penetration of the virus into host cells (treatment of infected cells). The fourth method of exposure where the virus and polyphenols were added to cells simultaneously (simultaneous treatment) was previously described by us in [22]. The anti-HSV-1 activity of polyphenols was assessed using the cytopathic effect inhibition (CPE) assay.
The monolayer of cells was pretreated with different concentrations of the studied compounds for 2 h at 37 °C. After washing, the cells were infected with 100 TCID50/mL of the virus at 37 °C for 1 h. Then, unabsorbed virus was removed by washing with PBS (Sigma, Saint-Louis, MO, USA), and cells were incubated in the maintenance medium until CPE appeared.

HSV-1 [6] = assay: Treatment of virus-infected cells with polyphenols, CPE inhibition assay; type: cell-based, HSV-1 strain L2; conditions: for IC50: Human alphaherpesvirus 1, compound added after virus adsorption and penetration, CPE assay; for Treatment of Infected Cells SI: ratio of CC50 to IC50
Method: as §1
The monolayer of cells was infected with the virus (100 TCID50/mL) at 37 °C for 1 h, and then the cells were washed with PBS (Sigma, Saint-Louis, MO, USA) and treated with different concentrations of the studied compounds and incubated until CPE appeared.

HSV-1 [7] = system: HSV-1; parameters: method as in PMID 36985562; conditions: ref [22], cited from earlier work; for Simultaneous Treatment SI: ratio of CC50 to IC50; for Simultaneous Treatment IC50 / IC50: virus and compound added to cells simultaneously, CPE assay; for IC50: read-out: Simultaneous Treatment IC50

| Structure (SMILES) | effect on viability of 6-OHDA-treated Neuro-2a cells (in words) [1] | increase of mitochondrial membrane potential [2] | CC50 [3] | Dead [4] [%] | Early apop. [4] [%] | Late apop./Dead [4] [%] | Live [4] [%] | IC50 (HSV-1 [5]) | Pretreatment of Cells SI (HSV-1 [5]) | IC50 (HSV-1 [6]) | Treatment of Infected Cells SI (HSV-1 [6]) | Simultaneous Treatment SI (HSV-1 [7]) | Simultaneous Treatment IC50 (HSV-1 [7]) [µg/mL] | IC50 (HSV-1 [7]) [µM] |
| --- | --- | --- | --- | --- | --- | --- | --- | --- | --- | --- | --- | --- | --- | --- |
| Oc1ccc(/C=C/c2cc(O)cc(O)c2)cc1 [Compound 1, resveratrol] | did not cause any increase in the viability | 8–12% | 123 µg/mL and 540 µM |  |  |  |  |  |  |  |  |  |  |  |
| O=C1C[C@@H](c2ccc(O)cc2)Oc2cc(O)ccc21 [Compound 6, liquiritigenin] |  | 8–12% |  | 0.61 ± 0.13 | 27.67 ± 1.09 | 10.89 ± 0.86 | 61.83 ± 0.09 |  |  |  |  |  |  |  |
| Oc1cc(O)cc(/C=C/c2ccc3c(c2)O[C@H](c2cc(O)cc(O)c2)[C@@H](c2ccc(O)c(O)c2)O3)c1 [Compound 9, maackin] | did not show significant activity | 8–12% |  |  |  |  |  | 70.3 µg/mL and 145 µM | 3.8 and 3.8 ± 0.5 | 24.5 µg/mL and 50.4 µM | 11.0 ± 1.4 | 15.3 ± 1.9 | 17.6 ± 2.3 | 36.2 ± 4.7 |
| Oc1ccc(/C=C/c2cc(O)cc3c2[C@H](c2cc(O)cc(O)c2)[C@@H](c2ccc(O)c(O)c2)O3)cc1 [Compound 13, scirpusin A] |  |  | 424 ± 50.1 µM | 0.73 ± 0.15 | 30.18 ± 1.13 | 12.2 ± 0.34 | 56.90 ± 1.32 | 47.2 µg/mL and 100 µM | 4.2 and 4.2 ± 0.6 | 20.2 µg/mL and 43 µM | 9.8 ± 1.2 | 14.4 ± 1.7 | 13.8 ± 1.6 | 29.4 ± 3.4 |
